Active and inactive are the calls of the source. The rule behind the calls is not given here.
Legend:
[1] = in vitro; settings: PAMPA
Description: Permeability of the compound after 2.5 hrs by PAMPA

[2] = in vitro; settings: PAMPA; remark: listed apart in the source
Description: Permeability of the compound at 500 uM after 8 hrs by PAMPA

[3] = molecular target: T1, Acetylcholinesterase (Homo sapiens, UniProt P22303); experiment: Inhibition of recombinant human AChE using acetylthiocholine iodide as substrate pretreated for 5 mins followed by substrate addition measured for 5 mins by Ellman's method
[4] = molecular target: T2, Cholinesterase (Homo sapiens, UniProt P06276); experiment: Inhibition of recombinant human serum BuChE using butyrylthiocholine iodide as substrate pretreated for 5 mins followed by substrate addition measured for 5 mins by Ellman's method
T2 sequence (P06276 whole entry): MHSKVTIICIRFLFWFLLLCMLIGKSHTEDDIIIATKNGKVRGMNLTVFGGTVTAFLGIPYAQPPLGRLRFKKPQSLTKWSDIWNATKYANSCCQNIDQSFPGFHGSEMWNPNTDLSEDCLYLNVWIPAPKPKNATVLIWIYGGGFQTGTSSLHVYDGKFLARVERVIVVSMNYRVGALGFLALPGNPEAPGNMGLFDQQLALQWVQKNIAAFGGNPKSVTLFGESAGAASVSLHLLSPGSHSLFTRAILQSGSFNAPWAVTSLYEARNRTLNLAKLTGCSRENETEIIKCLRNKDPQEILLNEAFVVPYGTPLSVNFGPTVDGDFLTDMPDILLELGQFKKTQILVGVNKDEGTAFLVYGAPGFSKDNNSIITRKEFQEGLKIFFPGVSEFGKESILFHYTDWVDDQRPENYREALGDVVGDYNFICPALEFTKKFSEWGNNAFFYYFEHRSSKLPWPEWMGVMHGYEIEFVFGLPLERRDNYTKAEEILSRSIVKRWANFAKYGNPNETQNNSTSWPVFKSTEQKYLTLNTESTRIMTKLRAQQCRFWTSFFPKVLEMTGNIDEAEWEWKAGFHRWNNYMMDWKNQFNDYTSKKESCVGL

[5] = tested on: Rattus norvegicus; experiment: In vivo inhibition of BuChE in Wistar rat administered ip measured after 60 mins by Ellman's method; type: functional, organism-based
[6] = tested on: Rattus norvegicus; experiment: In vivo inhibition of BuChE in Wistar rat at 80 mg/kg, ip measured after 60 mins by Ellman's method relative to control; type: functional; settings: 1 h
[7] = tested on: SH-SY5Y; experiment: Cytotoxicity against human SH-SY5Y cells assessed as cell death up to […] after 24 hrs by LDH release assay; type: cell-based
[8] = in vitro; settings: PAMPA; remark: listed apart in the source
Description: Permeability of the compound by PAMPA

[9] = molecular target: Cholinesterase (Equus caballus) (UniProt P81908); experiment: Binding affinity to equine serum BuChE at 20-fold excess by STD-NMR menthod
Sequence of Cholinesterase (Equus caballus) (P81908 whole entry): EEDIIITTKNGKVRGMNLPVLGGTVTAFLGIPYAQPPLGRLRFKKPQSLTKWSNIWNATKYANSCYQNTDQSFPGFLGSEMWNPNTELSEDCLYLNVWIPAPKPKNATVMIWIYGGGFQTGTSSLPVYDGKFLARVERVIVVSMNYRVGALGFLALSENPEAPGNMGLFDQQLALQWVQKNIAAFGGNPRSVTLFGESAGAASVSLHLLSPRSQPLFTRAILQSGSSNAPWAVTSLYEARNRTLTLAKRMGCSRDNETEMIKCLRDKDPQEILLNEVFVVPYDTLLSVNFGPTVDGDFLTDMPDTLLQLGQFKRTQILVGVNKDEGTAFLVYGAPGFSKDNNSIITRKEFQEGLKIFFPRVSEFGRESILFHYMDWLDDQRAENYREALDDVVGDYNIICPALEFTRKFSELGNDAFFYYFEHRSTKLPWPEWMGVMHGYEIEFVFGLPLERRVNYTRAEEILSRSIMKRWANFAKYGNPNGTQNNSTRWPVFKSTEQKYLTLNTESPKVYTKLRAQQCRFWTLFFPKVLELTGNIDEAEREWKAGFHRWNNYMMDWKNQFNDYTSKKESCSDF

[10] = molecular target: Acetylcholinesterase (Electrophorus electricus) (UniProt O42275); experiment: Binding affinity to electric eel AChE at 260 uM by trNOESY NMR method
Sequence of Acetylcholinesterase (Electrophorus electricus) (O42275 24-633 limits assumed): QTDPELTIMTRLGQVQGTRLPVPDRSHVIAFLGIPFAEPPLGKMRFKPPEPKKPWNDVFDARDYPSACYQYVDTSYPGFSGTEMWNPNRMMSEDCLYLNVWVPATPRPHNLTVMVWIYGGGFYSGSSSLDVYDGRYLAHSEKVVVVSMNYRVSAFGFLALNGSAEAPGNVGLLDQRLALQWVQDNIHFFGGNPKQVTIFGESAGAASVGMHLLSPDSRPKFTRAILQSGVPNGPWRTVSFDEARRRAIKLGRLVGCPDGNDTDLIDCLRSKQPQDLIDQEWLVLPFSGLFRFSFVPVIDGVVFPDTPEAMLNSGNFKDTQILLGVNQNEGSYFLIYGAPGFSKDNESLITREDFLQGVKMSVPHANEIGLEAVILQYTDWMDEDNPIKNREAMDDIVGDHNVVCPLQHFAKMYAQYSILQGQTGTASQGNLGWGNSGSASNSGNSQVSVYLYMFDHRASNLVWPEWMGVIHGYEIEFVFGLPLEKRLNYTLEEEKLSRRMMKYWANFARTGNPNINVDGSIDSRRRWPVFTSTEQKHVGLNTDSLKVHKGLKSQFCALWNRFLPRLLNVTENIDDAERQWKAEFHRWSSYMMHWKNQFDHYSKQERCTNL

[11] = molecular target: Cholinesterase (Equus caballus) (UniProt P81908); experiment: Binding affinity to equine serum BuChE at 176 uM by trNOESY NMR method
[12] = molecular target: Acetylcholinesterase (Electrophorus electricus) (UniProt O42275); experiment: Binding affinity to electric eel AChE at 20-fold excess by STD-NMR menthod
[13] = molecular target: T2, Cholinesterase; experiment: Mixed-type inhibition of recombinant human serum BuChE at 0.5 to 2 nM using varying levels of butyrylthiocholine iodide as substrate pretreated for 5 mins followed by substrate addition measured for 5 mins by Lineweaver-Burk plot analysis
[14] = molecular target: T1, Acetylcholinesterase; experiment: Competitive inhibition of recombinant human AChE at 1 to 10 uM using varying levels of acetylthiocholine iodide as substrate pretreated for 5 mins followed by substrate addition measured for 5 mins by Lineweaver-Burk plot analysis

T1 sequence (P22303 whole entry): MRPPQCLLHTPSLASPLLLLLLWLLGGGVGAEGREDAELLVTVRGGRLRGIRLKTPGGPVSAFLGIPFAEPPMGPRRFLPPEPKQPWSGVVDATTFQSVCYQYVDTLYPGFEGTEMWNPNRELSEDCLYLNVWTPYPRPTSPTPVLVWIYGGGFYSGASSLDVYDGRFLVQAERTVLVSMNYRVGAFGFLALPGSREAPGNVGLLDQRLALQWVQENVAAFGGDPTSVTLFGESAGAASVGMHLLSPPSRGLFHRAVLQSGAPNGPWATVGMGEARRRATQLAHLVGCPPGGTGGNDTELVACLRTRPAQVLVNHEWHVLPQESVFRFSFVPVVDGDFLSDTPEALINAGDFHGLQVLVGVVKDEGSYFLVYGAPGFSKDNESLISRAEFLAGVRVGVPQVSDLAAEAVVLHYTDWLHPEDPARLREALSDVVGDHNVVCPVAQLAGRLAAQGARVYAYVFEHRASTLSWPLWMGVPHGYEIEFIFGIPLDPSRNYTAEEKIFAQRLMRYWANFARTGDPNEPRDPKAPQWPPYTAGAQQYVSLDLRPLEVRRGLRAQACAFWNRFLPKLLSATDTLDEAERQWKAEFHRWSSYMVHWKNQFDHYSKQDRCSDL

Cn1c(=O)c2c(ncn2C)n(C)c1=O [CAFFEINE]
Papp at 2.5 h [1]: 0.1 ×10⁻⁶ cm/s

CO/N=C(\C(=O)N[C@@H]1C(=O)N2C(C(=O)O)=C(CSc3nc(=O)c(=O)[nH]n3C)CS[C@H]12)c1csc(N)n1 [CEFTRIAXONE]
Papp at 8 h, 500 µM [2]: 0.1 ×10⁻⁶ cm/s

Cn1cc(CC(=O)NCCC2CCN(Cc3ccccc3)CC2)c2ccccc21
Papp at 8 h, 500 µM [2]: 5.5 ×10⁻⁶ cm/s
IC50 [3]: 1420 nM
IC50 [4]: 0.25 nM
Papp at 2.5 h [1]: 7.3 ×10⁻⁶ cm/s

O=C(Cc1c[nH]c2ccc(Br)cc12)NCCC1CCN(Cc2ccccc2)CC1
inhibition [5]: Dose-dependent effect
Papp at 8 h, 500 µM [2]: 0.5 ×10⁻⁶ cm/s
inhibition in vivo at 80 mg/kg [6]: 15%
Activity [7]: Non-Toxic
IC50 [3]: 1410 nM
IC50 [4]: 0.68 nM
Papp at 2.5 h [1]: 5.8 ×10⁻⁶ cm/s

CN(C)CCCN1c2ccccc2Sc2ccccc21 [PROMAZINE]
Papp at 2.5 h [1]: 11.8 ×10⁻⁶ cm/s

Nc1nc2c(ncn2COCCO)c(=O)[nH]1 [ACYCLOVIR]
Papp at 8 h, 500 µM [2]: 0.1 ×10⁻⁶ cm/s

NC(=O)N1c2ccccc2C=Cc2ccccc21 [CARBAMAZEPINE]
Papp [8]: 11.3 ×10⁻⁶ cm/s
Papp at 8 h, 500 µM [2]: 11.2 ×10⁻⁶ cm/s

O=C(CCCc1c[nH]c2ccccc12)NCCC1CCN(Cc2ccccc2)CC1
Papp at 8 h, 500 µM [2]: 0.1 ×10⁻⁶ cm/s
IC50 [3]: 1260 nM
IC50 [4]: 12 nM
Papp at 2.5 h [1]: 3.9 ×10⁻⁶ cm/s

CN1C(C(=O)Nc2ccccn2)=C(O)c2ccccc2S1(=O)=O [PIROXICAM]
Papp at 2.5 h [1]: 0.1 ×10⁻⁶ cm/s

O=c1ccc2ccccc2o1 [COUMARIN]
Papp [8]: 22.1 ×10⁻⁶ cm/s
Papp at 8 h, 500 µM [2]: 19.3 ×10⁻⁶ cm/s

CNCCCN1c2ccccc2CCc2ccccc21 [DESIPRAMINE]
Papp at 2.5 h [1]: 11.4 ×10⁻⁶ cm/s

Cn1cc(C(=O)NCCC2CCN(Cc3ccccc3)CC2)c2ccccc21
Papp at 8 h, 500 µM [2]: 4.6 ×10⁻⁶ cm/s
IC50 [3]: 6110 nM
IC50 [4]: 670 nM
Papp at 2.5 h [1]: 4.8 ×10⁻⁶ cm/s

O=C(Cc1c[nH]c2ccccc12)NCCC1CCN(Cc2ccccc2)CC1
Activity [9]: Active
Papp at 8 h, 500 µM [2]: 0.1 ×10⁻⁶ cm/s
Activity [10]: Active
Activity [11]: Active
Activity [12]: Active
IC50 [3]: 3550 nM
inhibition [13]: Active
inhibition [14]: Active
IC50 [4]: 0.87 nM
Papp at 2.5 h [1]: 2.4 ×10⁻⁶ cm/s

Cc1[nH]c2ccccc2c1CC(=O)NCCC1CCN(Cc2ccccc2)CC1
Papp at 8 h, 500 µM [2]: 0.7 ×10⁻⁶ cm/s
IC50 [3]: 7270 nM
IC50 [4]: 1.09 nM
Papp at 2.5 h [1]: 2.3 ×10⁻⁶ cm/s

O=C(CCc1c[nH]c2ccccc12)NCCC1CCN(Cc2ccccc2)CC1
Papp at 8 h, 500 µM [2]: 0.7 ×10⁻⁶ cm/s
IC50 [3]: 5950 nM
IC50 [4]: 0.89 nM
Papp at 2.5 h [1]: 2.2 ×10⁻⁶ cm/s

Source: ChEMBL document CHEMBL4251652, “Chameleon-like behavior of indolylpiperidines in complex with cholinesterases targets: Potent butyrylcholinesterase inhibitors” (Eur J Med Chem, 2018)
